According to PMC10854695, “Using Flavonoid Substitution Status to Predict Anticancer Effects in Human Melanoma Cancers: An In Vitro Study” (Cancers, 2024):

Key:
in vitro = conditions: human
A375 melanoma cells [1] = experiment: Neutral red uptake (NRU) assay, A375; conditions: read-out: IC50, cytotoxic activity, NRU assay
Experimental: (§1) The NRU (neutral red uptake) was conducted as previously described by Szoka and co-workers, with some modifications [22]. Briefly, melanoma cells and fibroblasts were seeded in microplates at the density of 1 × 10^4 cells per well and allowed to adhere for 24 h. […] After treatment, the culture medium was replaced with a neutral red solution (40 µg/mL). An additional 2 h of incubation was performed. The neutral red solution was then removed and the neutral red accumulated in the cells was dissolved in 50% EtOH with 1% of the glacial acetic acid. The absorbance was estimated at 540 nm and IC50 values were calculated using GraphPad Prism software (GraphPad Software, San Diego, CA, USA).

C32 melanoma cells [2] = experiment: MTT cell viability assay, C32; conditions: Homo sapiens, read-out: IC50, cytotoxic activity, MTT test;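 further: MTT added for 2 h, cells lysed in DMSO, absorbance read at 570 nm, compound vehicle kept at or below 0.1% DMSO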
Experimental: The MTT colorimetric assay was performed as a preliminary evaluation of the cytotoxicity of the selected flavonoids according to the method described and validated by Strawa et al. [21]. Briefly, melanoma cells and fibroblasts were seeded in 96-well microplates at a density of 1 × 10^4 cells per well. Fibroblasts were used as a control cell line in order to assess the selectivity of the compounds. […] Subsequently, the cells were washed with PBS, incubated with MTT solution for 2 h, and lysed with dimethyl sulfoxide (DMSO) supplemented with 1% (v/v) Sorensen’s glycine buffer. The absorbance was measured using a microplate reader (EPOCH 2, BioTek, Winooski, VT, USA) at a wavelength of 570 nm. The compounds were used at a final DMSO concentration of no more than 0.1% (v/v) in each well. The results were generated from at least three independent experiments. […] The IC50 values were calculated with GraphPad Prism 9 software (GraphPad Software, San Diego, CA, USA).

[3] = Neutral red uptake (NRU) assay, normal cells; conditions: human, human skin fibroblasts (CCD25Sk)
Experimental: as §1

A375 melanoma cells [4] = experiment: MTT cell viability assay, A375; conditions: Homo sapiens;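 further: Read-out is formazan absorbance at 570 nm after 2 h with MTT, with compounds in at most 0.1% v/v DMSO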
C32 melanoma cells [5] = experiment: Neutral red uptake (NRU) assay, C32
C32 melanoma cells [6] = experiment: [3H]-thymidine incorporation (DNA biosynthesis), C32; format: cell-based, human; conditions: read-out: IC50, effect on DNA biosynthesis ([3H]-thymidine incorporation)
Experimental: (§2) The inhibition of DNA biosynthesis was evaluated using [^3H]-thymidine incorporation into the DNA of melanoma cells (C32, A375) and fibroblasts treated with the studied compounds [21]. The cells were briefly seeded in 24-well plates (1 × 10^5 cells per well) and allowed to adhere for 24 h. […] After incubation for 24, 48, and 72 h, the cells were rinsed three times with PBS. Then, cells were lysed in 1 mL of 0.1 M NaOH containing 1% SDS. The cell lysate was moved into scintillation vials containing scintillation liquid, and the radioactivity of the samples was measured using a liquid scintillation analyzer (Perkin-Elmer, Waltham, MA, USA).

A375 melanoma cells [7] = experiment: Apoptosis assay, annexin V/PI flow cytometry, A375; format: cell-based, human; conditions: A375, 25 µM, 48 h
Experimental: Firstly, cells were placed in 6-well plates at a density of 1 × 10^5 cells per well and allowed to adhere for 24 h. Then, cells were treated with 25 µM, 50 µM, and 100 μM of the selected flavonoids (1, 6, 15, 16, 17, 37) and incubated for 48 h. Floating and adherent cells were collected and assayed using the manufacturer’s protocol supported by the Dead Cell Apoptosis Kit for flow cytometry. Concisely, 100 μL of an annexin-binding buffer containing a 5 μL annexin V-FITC conjugate solution and 1 μg/mL PI (propidium iodide) was used to disperse the cells. After 15 min of incubation, an additional 400 μL of the mentioned buffer was added. The cells were analyzed with a DxFLEX flow cytometer (Beckman Coulter, Brea, CA, USA).

[8] = tested on: caspases, PARP, phospho-RSK in C32 cells; experiment: Western immunoblot of apoptosis mediators and RSK, C32; format: cell-based, human; conditions: C32, 48 h, Western blot
Experimental: (§3) Floating cells were harvested by centrifugation of the conditioned media (300× g, 5 min). Cell pellet and adherent cells were lysed in a cell lysis buffer supplemented with inhibitors of proteases and phosphatases. The cell lysate was sonicated (2 × 10 s) on ice with an ultrasonic homogenizer (UP200S, Hielscher Ultrasonics GmbH, Teltow, Germany) and centrifuged for 10 min at 10,000× g. The supernatant was collected and stored in a freezer at −70 °C. Protein concentrations in the cell supernatants were determined using a Lowry assay. Obtained proteins were dissolved on SDS-PAGE gels (7.5%, 10%, or 12%) using the Mini-Protean Tetra system. The proteins were transferred to nitrocellulose membranes using the Mini Trans-Blot Cell wet blotting system. The 5% skim milk was used to block membranes. Then, membranes were probed for 24 h at 4 °C with the following antibodies: anti-phospho-RSK, anti-RSK, anti-PARP, anti-cleaved PARP, anti-caspase-8, anti-caspase-9, anti-caspase-7, anti-caspase-3, and anti-actin. Membranes were incubated with an ECL-HRP (enhanced chemiluminescence-horseradish peroxidase) substrate, and the signal was spotted using the BioSpectrum Imaging System and VisionWorks LS software 7.0 (Ultra-Violet Products, Ltd., San Gabriel, CA, USA). The intensity of the bands was quantified by densitometric analysis using UVIBand software, version 15.08d (Uvitec Ltd., Cambridge, UK).

[9] = tested on: human skin fibroblasts (CCD25Sk); experiment: [3H]-thymidine incorporation (DNA biosynthesis), normal cells; format: cell-based; conditions: read-out: IC50, effect on DNA biosynthesis ([3H]-thymidine incorporation)
Experimental: as §2

[10] = tested on: caspases, PARP, phospho-RSK in A375 cells; experiment: Western immunoblot of apoptosis mediators and RSK, A375; format: cell-based, human; conditions: A375, 48 h, Western blot
Experimental: as §3

A375 melanoma cells [11] = experiment: [3H]-thymidine incorporation (DNA biosynthesis), A375; format: cell-based, human; conditions: read-out: IC50, effect on DNA biosynthesis ([3H]-thymidine incorporation)
Experimental: as §2

[12] = MTT cell viability assay, normal cells; conditions: human, human skin fibroblasts (CCD25Sk);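 further: fibroblasts served as non-cancer comparison line for selectivity versus melanoma cells, MTT reduction read as absorbance at 570 nm after 2 h dye exposure, compounds in ≤0.1% DMSO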
[13] = tested on: cleaved caspase-3 and cleaved caspase-7 in C32 cells; experiment: Immunofluorescence of cleaved caspase-3/-7, C32; format: cell-based, human; conditions: C32, 48 h, immunofluorescent staining
Experimental: Firstly, to examine fluorescent signals, cells were placed in the bottom of 96-well black plates at 1 × 10^4 cells per well and permitted to adhere for 24 h. […] After incubating and removing the medium, cells were fixed in 4% paraformaldehyde for 15 min. Later, cells were rinsed three times with PBS and permeabilized with 0.1% Triton X-100 for 5 min at room temperature. The 10% heat-inactivated goat serum in the PBS was used to block non-specific binding. Subsequently, cells were treated with the following antibodies overnight: anti-cleaved caspase 3 and anti-cleaved caspase-7. […] Cell nuclei were stained with Hoechst 33342 and F-actin was stained with Phalloidin-Atto 488. Fluorescent signals were captured using a BD Pathway 855 confocal microscope (Becton Dickinson, Franklin Lakes, NJ, USA). The mean fluorescence intensity was calculated using ImageJ software (National Institutes of Health, Bethesda, Rockville, MD, USA).

[14] = tested on: human skin fibroblasts (CCD25Sk); experiment: Neutral red uptake (NRU) assay, normal cells; conditions: read-out: IC50, cytotoxic activity, NRU assay; Normal cells (fibroblasts), 48 h
Experimental: as §1

[15] = A-375, 24 h, read-out: IC50, cytotoxic activity, MTT test, A375, 24 h
[16] = A-375, 48 h, read-out: IC50, cytotoxic activity, MTT test, A375, 48 h
[17] = A-375, 72 h, read-out: IC50, cytotoxic activity, MTT test, A375, 72 h
[18] = Homo sapiens, C32, 24 h, read-out: IC50, cytotoxic activity, NRU assay, C32, 24 h
[19] = Homo sapiens, C32, 48 h, read-out: IC50, cytotoxic activity, NRU assay, C32, 48 h
[20] = Homo sapiens, C32, 72 h, read-out: IC50, cytotoxic activity, NRU assay, C32, 72 h

SMILES | IC50 at 24 h (in vitro) | IC50 at 48 h (in vitro) | IC50 at 72 h (in vitro) | IC50 (A375 melanoma cells [1]; Homo sapiens, A-375, 24 h) | IC50 (A375 melanoma cells [1]; Homo sapiens, A-375, 48 h) | IC50 (A375 melanoma cells [1]; Homo sapiens, A-375, 72 h) | IC50 (C32 melanoma cells [2]; C32, 24 h) | IC50 (C32 melanoma cells [2]; C32, 48 h) | IC50 (C32 melanoma cells [2]; C32, 72 h) | IC50 at 24 h [3] | IC50 at 48 h [3] | IC50 at 72 h [3] | IC50 (A375 melanoma cells [4]; [15]) | IC50 (A375 melanoma cells [4]; [16]) | IC50 (A375 melanoma cells [4]; [17]) | IC50 (C32 melanoma cells [5]; [18]) | IC50 (C32 melanoma cells [5]; [19]) | IC50 (C32 melanoma cells [5]; [20]) | further results
O=c1cc(-c2ccccc2)oc2cc(O)cc(O)c12 [Compound 14, chrysin] | > 200 µM | > 200 µM | 71.2 ± 4.5 µM | 52.4 ± 3.5 µM | 34.5 ± 2.3 µM | 33.1 ± 2.8 µM | 100 to 200 µM | 96.4 ± 7 µM | 58.9 ± 4.5 µM | 100 to 200 µM | 65.7 ± 4.2 µM | 76.3 ± 4.7 µM | 100 to 200 µM | 66.4 ± 4.5 µM | 34.4 ± 2.8 µM | 89.2 ± 7.8 µM | 44.7 ± 3.9 µM | 25.6 ± 2.4 µM | –
O=c1cc(-c2ccccc2)oc2ccc(O)c(O)c12 [Compound 15, 5,6-dihydroxyflavone] | – | – | – | 53.3 ± 4.6 µM | 16 ± 1.1 µM | 13.6 ± 1.1 µM | 100 to 200 µM | 47.5 ± 3.5 µM | 23.5 ± 1.9 µM | > 200 µM | 100 to 200 µM | 100 to 200 µM | 86 ± 6.3 µM | 36.4 ± 2 µM | 26.4 ± 1.2 µM | 72.6 ± 5.5 µM | 18.2 ± 2.1 µM | 15.4 ± 1.1 µM | IC50 (C32 melanoma cells [6]; C32, 48 h): 20 ± 1.9 µM; IC50 (C32 melanoma cells [6]; Homo sapiens, C32, C32, 24 h): > 200 µM; IC50 (C32 melanoma cells [6]; Homo sapiens, C32, C32, 48 h): 20.1 ± 0.98 µM; IC50 (C32 melanoma cells [6]; Homo sapiens, C32, C32, 72 h): 20.3 ± 1.2 µM; level of early apoptotic cells (A375 melanoma cells [7]): 42.0 ± 4.5%; level of late apoptotic cells (A375 melanoma cells [7]): 8.9 ± 2.2%; cleaved PARP and caspase-9 [8]: generated cleaved PARP and caspase-9; IC50 ([9]; Homo sapiens, Skin fibroblast, 24 h): 175 ± 7.6 µM; IC50 ([9]; Homo sapiens, Skin fibroblast, 48 h): > 200 µM; IC50 ([9]; Homo sapiens, Skin fibroblast, 72 h): > 200 µM; expression of cleaved caspase-8 [10]: increased; IC50 (A375 melanoma cells [11]; A375, 48 h): 32.4 ± 2.4 µM; IC50 (A375 melanoma cells [11]; Homo sapiens, A-375, A375, 24 h): > 200 µM; IC50 (A375 melanoma cells [11]; Homo sapiens, A-375, A375, 48 h): 32.4 ± 0.49 µM; IC50 (A375 melanoma cells [11]; Homo sapiens, A-375, A375, 72 h): 31.4 ± 1.7 µM; IC50 at 24 h [12]: > 200 µM; IC50 at 48 h [12]: > 200 µM; IC50 at 72 h [12]: > 200 µM; caspase-3 expression [13]: notably extended
O=C(O)C1OC(Oc2c(-c3ccc(O)cc3)oc3cc(O)cc(O)c3c2=O)C(O)C(O)C1O (stereo not drawn) [Compound 21, kaempferol 3-O-glucuronide] | > 200 µM | > 200 µM | > 200 µM | > 200 µM | > 200 µM | > 200 µM | > 200 µM | > 200 µM | > 200 µM | > 200 µM | > 200 µM | > 200 µM | > 200 µM | > 200 µM | > 200 µM | > 200 µM | > 200 µM | > 200 µM | –
COc1ccc(-c2oc3c(CC=C(C)C)c(O[C@@H]4O[C@H](CO)[C@@H](O)[C@H](O)[C@H]4O)cc(O)c3c(=O)c2O[C@@H]2O[C@@H](C)[C@H](O)[C@@H](O)[C@H]2O)cc1 [Compound 23, icariin] | > 200 µM | > 200 µM | > 200 µM | > 200 µM | > 200 µM | > 200 µM | > 200 µM | > 200 µM | > 200 µM | > 200 µM | > 200 µM | > 200 µM | > 200 µM | > 200 µM | > 200 µM | > 200 µM | > 200 µM | > 200 µM | –
O=c1c(O)c(-c2cc(O)c(O)c(O)c2)oc2cc(O)cc(O)c12 [Compound 30, myricetin] | > 200 µM | > 200 µM | > 200 µM | > 200 µM | > 200 µM | > 200 µM | > 200 µM | > 200 µM | > 200 µM | > 200 µM | > 200 µM | > 200 µM | > 200 µM | > 200 µM | 75.3 ± 4.8 µM | > 200 µM | > 200 µM | > 200 µM | –
COc1ccc([C@@H]2CC(=O)c3c(O)cc(O)cc3O2)cc1O [Compound 33, hesperetin] | > 200 µM | > 200 µM | > 200 µM | 100 to 200 µM | 100 to 200 µM | 100 to 200 µM | > 200 µM | 100 to 200 µM | 76.5 ± 6.3 µM | > 200 µM | > 200 µM | 100 to 200 µM | 100 to 200 µM | 100 to 200 µM | 74.5 ± 6.4 µM | 69 ± 5.1 µM | 58.3 ± 5.6 µM | 53.7 ± 4 µM | –
N.N.[Cl][Pt][Cl] [cPt, cisplatin, reference compound] | – | – | – | – | – | – | – | – | – | – | – | – | – | – | – | – | – | – | IC50 (C32 melanoma cells [6]; C32, 24 h): 6.8 ± 0.4 µM; IC50 (C32 melanoma cells [6]; C32, 48 h): 5.7 ± 0.3 µM; IC50 (C32 melanoma cells [6]; C32, 72 h): 4.4 ± 0.4 µM; IC50 (A375 melanoma cells [1]; A375, 72 h): 9.9 ± 1.1 µM; cleaved PARP and caspase-9 [8]: generated cleaved PARP and caspase-9; phosphorylation of RSK [8]: inhibited; IC50 ([9]; 24 h): 7.1 ± 0.9 µM; IC50 ([9]; 48 h): 6.1 ± 0.5 µM; IC50 ([9]; 72 h): 6.1 ± 0.8 µM; cleavage of initiator caspases, caspase-9 and caspase-8 [10]: cleavage of both initiator caspases; levels of the caspases-3 and -7 zymogens [10]: decreased levels; phosphorylation of the RSK protein [10]: impaired; IC50 [14]: 47.5 ± 4.9 µM; IC50 (A375 melanoma cells [11]; A375, 24 h): 3.8 ± 0.2 µM; IC50 (A375 melanoma cells [11]; A375, 48 h): 3.9 ± 0.5 µM; IC50 (A375 melanoma cells [11]; A375, 72 h): 3.4 ± 0.3 µM; IC50 (C32 melanoma cells [5]; read-out: IC50, cytotoxic activity, NRU assay, C32, 72 h): 13.8 ± 1.5 µM
